Data from patent publication US20200289482A1, “CYSTIC FIBROSIS TRANSMEMBRANE CONDUCTANCE REGULATOR MODULATORS FOR TREATING AUTOSOMAL DOMINANT POLYCYSTIC KIDNEY DISEASE” (The Johns Hopkins University, priority 2017, published 2020).

Key:
[1] = system: intracellular Ca2+ in PN cells; test: Fura-2 Ca2+ imaging assay; type: cell-based, mouse; settings: VX-809 10 μM 16 h
Experimental: FIG. 5A, FIG. 5B, FIG. 5C, FIG. 5D, FIG. 5E, and FIG. 5F show intracellular Ca2+ (F340/F380) levels obtained by ratiometric Fura-2 AM analysis of PN cells treated with VX-809 (10 μM) for 16 h. (FIG. 5A) Representative traces of intracellular Ca2+ release in response to ATP (100 μM) in PN cells and cells treated with VX-809 (10 μM). (FIG. 5B, FIG. 5C) Graphs summarizing resting calcium levels (FIG. 5B) and the average amplitude of Ca2+ release (FIG. 5C) in response to ATP. (FIG. 5D) Representative traces of ER Ca2+ release in response to thapsigargin (4 μM) in PN cells treated with VX-809. (FIG. 5E, FIG. 5F) Resting calcium levels (FIG. 5E) and the average amplitude of Ca2+ release (FIG. 5F) in response to thapsigargin. Amplitude was measured as the […] of the signal base to peak Δf/f. Significance between the two groups was analyzed using Student's t-test, n=4-5). *P<0.05, ***P<0.001.
Ca^2+-dependent signal transduction is associated with cyst formation (26), (29). […] To address the effect of VX-809 on this Ca^2+ release, the cells were treated with thapsigargin, a specific inhibitor of the ER Ca^2+-ATPase which, when applied, allows Ca^2+ to leak out of the ER through independent Ca^2+-permeable pathways (33). A small effect of VX-809 on resting Ca^2+ was observed.
On Day 5 of cell culture, the cells were loaded with the cell-permeant acetoxymethyl (AM) ester of the calcium indicator fura-2 (fura-2/AM) at 37° C. for 90 min. Measurements were made on a Zeiss inverted microscope equipped with a Sutter Lambda 10-2 controller and filter wheel assembly. For ATP stimulation experiments, the cells were exposed to 100 μM ATP diluted in the imaging buffer. A Zeiss FluorArc mercury lamp was used to excite the cells at 340 and 380 nm, and the emission response was measured at 510 nm. Cell fluorescence was measured in response to excitation for 1000 ms at 340 nm and 200 ms at 380 nm once every 4 s. Image acquisition, image analysis, and filter wheel control were performed with IPLab software (see (25)).

[2] = system: model ADPKD cell line (PN=pkd−/− knockout); test: In vitro cystogenesis (3D Matrigel culture), cyst size; type: cell-based, mouse; parameters: cyst size, drug treatment regime incl. established cysts: dose or concentration left out as unconfirmed
[3] = system: Hsp70; test: Western blot of Hsp70 in kidney tissue lysates; type: in vivo, mouse; settings: cyst induced pkd−/− mice, VX-809 30 mg/kg BW
Experimental: FIG. 7A, FIG. 7B, FIG. 7C, FIG. 7D, FIG. 7E, and FIG. 7F show chaperone expression is altered in mice by VX-809. (FIG. 7A-FIG. 7B) Representative Western blot images of HSP27, 70, 90 and HSP40 in lysates of kidney tissue from no cyst induced (ND), cyst induced with Doxycycline (D) or cyst induced pkd−/− mice treated with VX-809 (D+VX-809) 30 mg/kg BW. (FIG. 7C, FIG. 7D, FIG. 7E, and FIG. 7F) Columns represent averages±standard errors of HSP27, 70, 90 and HSP40 expression. Data were analyzed by non-parametric t-test. n=4 for each treated and control groups. Black lines between lanes represent representative experiments from the same gel. *P<0.05; **P<0.01; To facilitate their growth in the kidney, cysts have developed an altered network of proteins that most likely serves to protect them from stress (34). Next, it was determined whether VX-809 would alter the levels of Hsps in pkd−/− mice and in PN cells. […] Hsp 27, 70 and 90 are all elevated in cystic kidneys compared to normal controls. […] There is no change in Hsp 40. […] Both sets of data are consistent with an alteration in the heat shock response to cyst growth.

[4] = system: Pkd1^fl/fl; Pax8^rtTA; TetO-cre mice; test: Cyst growth and renal function in Pkd1 knockout mice treated with VX-809; type: in vivo, mouse
Experimental: (FIG. 1A) Representative images of postnatal day (PND) 21 kidney sections from DMSO- and VX-809-treated mice. Significant reductions occurred in (FIG. 1B) cyst index, (FIG. 1C) kidney weight, and (FIG. 1D) kidney-to-body weight ratio. […] Methods: The total kidney area and total cystic area were measured with ImageJ (provided by NIH). Cystic index=100× (total cystic area/total kidney area) and is expressed as a percentage. Columns represent means±standard error (SEM) for DMSO (vehicle)-treated (n=4-5) and VX-809 mice. *P<0.05; **P<0.01 (for all graphs). Statistical analysis was performed using an unpaired two-tailed Student's t-test;
When treated with doxycycline, these mice express Cre, causing knockout of PC1 (18). […] The dosage of VX-809 injected was lower than the human pediatric dose, which is 500 mg of Lumacaftor per day; the adult dose is 800 mg/day.
Mouse strain and treatment. Pkd1^fl/fl; Pax8^rtTA; TetO-cre mice on a C57BL/6 background (61) were provided by the Baltimore PKD Center. Mice of both sexes were used in this study. Mice were injected IP with doxycycline (Sigma, # D9891) ([…]) on postnatal day 11 (PND11), PND12, and PND13 to produce very rapid and aggressive cyst growth (18,19). On PND21, the mice were euthanized.

[5] = VX-809 30 mg/kg IP daily PND10 to PND20 vs DMSO-treated mice
[6] = VX-809 30 mg/kg IP daily PND10 to PND20 vs control mice

lumacaftor [VX-809]
resting Ca2+ [1]: small reduction in resting Ca^2+
intracellular Ca2+ movement in response to ATP ([1]; ATP 100 μM): no effect on intracellular Ca^2+ movement in response to ATP
thapsigargin-induced release of Ca2+ from the ER ([1]; thapsigargin 4 μM): dramatically reduced the thapsigargin-induced release of Ca^2+ from the ER
cyst growth ([2]; 10 μM, plus or minus forskolin, treated on Days 0, 2, 4, 6, 8, 10, 12, 14, pictures Day 16): reduce cyst growth equally well in the presence and absence of forskolin
cyst size, drug treatment regime incl. established cysts ([2]; every other day, or from Days 9-16 on established cysts, in the presence of forskolin): dramatically reducing cyst size
Hsp70 expression in kidneys [3]: significantly less expression
overall body weight ([4]; VX-809 30 mg/kg IP daily PND10 to PND20, treated vs untreated groups): no difference in overall body weight
blood urea nitrogen (BUN) [4, 5]: lowered blood urea nitrogen (BUN)
creatinine [4, 5]: lowered
less cyst growth (cyst index) ([4]; VX-809 30 mg/kg IP daily PND10 to PND20 vs DMSO, doxycycline-induced cysts, PND21): ~60.4%
Kidney weight [4, 6]: lower than those of the control mice
kidney-to-body weight ratio [4, 6]: lower than those of the control mice
